# Data from ChEMBL document CHEMBL1201862, “PubChem BioAssay data set” (2004).
# Activity calls are given as the source filed them.
# Experiments:
# [1] = target: T1, Heat shock factor protein 1 (Mus musculus, UniProt P38532); experiment: decrease of HSF1-responsive luciferase luminescence – cell-based, NIH3T3, dose retest, confirmation (AID 2382); type: functional;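 note: NIH3T3 fibroblasts with HSF1-driven luciferase reporter stressed by proteasome inhibitor MG132; luminescence from HSF1-driven luciferase expression after 8 hours of MG132 stress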
# T1 sequence (P38532 whole entry): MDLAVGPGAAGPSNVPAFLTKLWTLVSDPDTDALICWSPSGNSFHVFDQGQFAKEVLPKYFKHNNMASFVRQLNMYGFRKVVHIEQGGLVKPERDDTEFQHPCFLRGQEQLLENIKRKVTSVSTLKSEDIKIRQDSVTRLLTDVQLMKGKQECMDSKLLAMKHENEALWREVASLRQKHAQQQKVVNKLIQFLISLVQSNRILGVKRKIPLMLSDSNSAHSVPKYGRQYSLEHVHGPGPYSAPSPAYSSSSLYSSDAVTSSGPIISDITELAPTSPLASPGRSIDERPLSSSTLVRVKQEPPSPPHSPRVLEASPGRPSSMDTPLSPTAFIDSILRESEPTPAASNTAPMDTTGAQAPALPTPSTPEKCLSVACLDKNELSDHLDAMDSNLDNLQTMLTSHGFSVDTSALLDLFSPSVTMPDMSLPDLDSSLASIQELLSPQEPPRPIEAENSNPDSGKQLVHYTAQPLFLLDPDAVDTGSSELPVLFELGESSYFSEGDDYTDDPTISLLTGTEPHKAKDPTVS
# [2] = viability of uninfected HEp-2 cells – cell-based, HTS, cytotoxicity control for RSV inhibitor project, dose response (AID 2410); type: functional; conditions: human respiratory syncytial virus
# Cytochrome P450 2D6 = Cytochrome P450 2D6 (Homo sapiens, UniProt P10635);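 note: CYP2D6 member of a cytochrome P450 panel assay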
# Cytochrome P450 3A4 = Cytochrome P450 3A4 (Homo sapiens, UniProt P08684);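 note: CYP3A4 tested as one member of a cytochrome P450 panel screen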
# Cytochrome P450 2C9 = Cytochrome P450 2C9 (Homo sapiens, UniProt P11712)
# [3] = Luminescence Cell-Based Dose Response HTS to Identify Activators of Luciferase Translation or Activity in H4 […] Cells. [Related pubchem assays: 1829 (Project Summary), 1814 (Primary HTS)]; type: functional
# H4 = experiment: Luminescence Cell-Based Dose Response HTS to Identify Activators of 5'UTR Stem-Loop Driven Prion Protein mRNA Translation in H4 Neuroglioblastoma Cells. [Related pubchem assays: 1829 (Project Summary), 1814 (Primary HTS)]; type: functional; conditions: Homo sapiens
# Cytochrome P450 3A4, sequence (P08684 whole entry): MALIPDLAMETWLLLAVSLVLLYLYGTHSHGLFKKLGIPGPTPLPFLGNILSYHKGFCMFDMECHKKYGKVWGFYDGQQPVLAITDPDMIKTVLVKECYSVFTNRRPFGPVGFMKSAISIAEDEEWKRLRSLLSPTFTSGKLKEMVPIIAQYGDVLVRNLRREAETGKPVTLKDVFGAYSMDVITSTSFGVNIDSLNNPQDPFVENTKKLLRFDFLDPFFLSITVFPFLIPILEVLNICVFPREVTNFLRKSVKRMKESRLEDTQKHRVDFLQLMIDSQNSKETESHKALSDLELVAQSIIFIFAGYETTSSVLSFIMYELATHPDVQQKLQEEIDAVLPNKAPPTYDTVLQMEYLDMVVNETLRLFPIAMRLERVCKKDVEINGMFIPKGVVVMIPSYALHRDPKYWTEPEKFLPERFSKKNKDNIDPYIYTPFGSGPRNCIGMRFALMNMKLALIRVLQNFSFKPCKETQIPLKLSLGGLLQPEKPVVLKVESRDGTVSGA
# Cytochrome P450 2D6, sequence (P10635 whole entry): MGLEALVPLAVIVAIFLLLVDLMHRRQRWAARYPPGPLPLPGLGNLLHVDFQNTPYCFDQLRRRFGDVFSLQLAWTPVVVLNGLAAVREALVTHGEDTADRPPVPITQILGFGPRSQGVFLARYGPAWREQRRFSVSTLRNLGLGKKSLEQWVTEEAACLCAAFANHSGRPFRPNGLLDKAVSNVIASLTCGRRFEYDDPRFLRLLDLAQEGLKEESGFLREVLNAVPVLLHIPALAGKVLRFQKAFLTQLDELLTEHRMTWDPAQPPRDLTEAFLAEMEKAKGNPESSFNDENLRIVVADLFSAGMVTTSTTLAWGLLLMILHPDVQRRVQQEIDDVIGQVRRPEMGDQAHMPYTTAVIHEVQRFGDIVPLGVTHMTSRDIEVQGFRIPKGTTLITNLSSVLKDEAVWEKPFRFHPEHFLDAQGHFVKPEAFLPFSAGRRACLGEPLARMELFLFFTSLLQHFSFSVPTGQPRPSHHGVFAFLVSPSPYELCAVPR
# Cytochrome P450 2C9, sequence (P11712 whole entry): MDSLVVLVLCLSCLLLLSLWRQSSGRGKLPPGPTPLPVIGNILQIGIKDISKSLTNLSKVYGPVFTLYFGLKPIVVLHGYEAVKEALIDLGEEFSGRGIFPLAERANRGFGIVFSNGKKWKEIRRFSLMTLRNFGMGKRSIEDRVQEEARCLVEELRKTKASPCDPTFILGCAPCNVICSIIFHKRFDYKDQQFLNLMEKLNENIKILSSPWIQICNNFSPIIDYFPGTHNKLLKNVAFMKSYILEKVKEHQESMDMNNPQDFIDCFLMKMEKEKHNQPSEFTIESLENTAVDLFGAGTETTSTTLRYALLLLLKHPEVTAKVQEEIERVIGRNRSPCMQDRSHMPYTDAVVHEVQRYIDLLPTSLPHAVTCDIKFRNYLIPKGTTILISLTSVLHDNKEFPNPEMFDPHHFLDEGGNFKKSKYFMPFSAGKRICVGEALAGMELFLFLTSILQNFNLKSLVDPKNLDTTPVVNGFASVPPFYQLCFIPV
structure (smiles),measurement,setting,value
Cc1ccc(/N=C/c2ccc[nH]2)c(O)c1,EC50,[1],> 195 µM (not active)
COc1cccc(Nc2cc(C)c3ccccc3n2)c1,CC50,[2],32 µM (active)
CCOC(=O)C(/C=N/CC(=O)O)=C(\O)OCC,AC50,Cytochrome P450 2D6,39.8 µM (inconclusive)
CCn1c(SCc2nc3ccccc3[nH]2)nnc1-c1ccc(OC)cc1,AC50,Cytochrome P450 2D6,20 µM (inconclusive)
Nc1nc2ccc(Cl)cc2c2nc(-c3ccco3)nn12 [CGS-15943],AC50,Cytochrome P450 2D6,12.6 µM (inconclusive)
same,AC50,Cytochrome P450 3A4,7.94 µM (inconclusive)
same,AC50,Cytochrome P450 2C9,31.6 µM (inconclusive)
CN(C)C(=O)c1ccc(-c2ccc3ncnc(NCc4cccs4)c3c2)cc1,AC50,Cytochrome P450 2D6,20 µM (inconclusive)
COc1ccccc1-c1ccc2ncnc(N(C)C)c2c1,AC50,Cytochrome P450 2D6,12.6 µM (inconclusive)
CC1CCN(C(S)=NCCc2ccccc2)CC1,EC50,[3],0.102 µM (active)
same,EC50,H4,31.3 µM (active)
Cc1csc(NC(=O)C2=COCCO2)n1,EC50,[3],3.11 µM (active)
same,EC50,H4,> 120 µM (not active)
C/C(=N/NC(=O)CNC(=O)c1ccccn1)c1ccc([N+](=O)[O-])cc1,EC50,[1],> 195 µM (not active)
C/C=C/c1ccc(OCC(=O)NCc2ccccc2OC)c(OC)c1,CC50,[2],40.4 µM (active)
O=C(COC(=O)/C=C/c1ccc(C(F)(F)F)cc1)NC1CC1,EC50,[1],> 195 µM (not active)
CCCOc1ccc(-c2n[nH]c(S)n2)cc1,CC50,[2],25.1 µM (active)
S=C(c1ccc(-c2ccc(Cl)cc2Cl)o1)N1CCCCC1,EC50,[3],50 µM (active)
same,EC50,H4,1.97 µM (active)
CCOC(=O)N1CCN(c2nc(-c3cccs3)nc3ccccc23)CC1,CC50,[2],> 50 µM (active)
COc1cc(C(=O)Nc2ccccc2NC(=O)c2cc(OC)c(OC)c(OC)c2)cc(OC)c1OC,EC50,[1],> 195 µM (not active)
COc1ccc2nc(O)c(CNc3ccccc3)cc2c1,CC50,[2],34.4 µM (active)
CCCNC(=O)c1ccc(COc2ccc(CCC)cc2OC)o1,EC50,[1],> 195 µM (not active)
O=C(NCc1ccccc1C(F)(F)F)C1CC(c2ccc(C(F)(F)F)cc2)=NO1 (stereo unspecified),EC50,[1],> 195 µM (not active)
CCOC(=O)c1c(C)[nH]c(C2=NN=C(NC3CC3)SC2)c1C,CC50,[2],28.1 µM (active)
COc1ccc(/C=N/N(C)C2=NCCN2)c(OC)c1OC,EC50,[1],> 195 µM (not active)
CC1(C)Cc2c(C#N)c(NCCO)nc(-c3ccco3)c2CO1,EC50,[1],> 195 µM (not active)
CN(NC1OC(=O)c2ccccc21)c1ccc(C(F)(F)F)cc1[N+](=O)[O-] (stereo unspecified),EC50,[1],> 195 µM (not active)
COc1ccc(NC(=O)C2C(c3ccccc3)C2(Cl)Cl)cc1 (stereo unspecified),CC50,[2],17.7 µM (active)
O=C(CN1c2ccccc2Sc2ccccc21)NNC(=O)Nc1ccc(Cl)cc1,CC50,[2],> 50 µM (active)
CCO/C(O)=C1\C(C)=NC2=C(C(=O)CCC2)C1c1cn(Cc2ccc(Cl)cc2Cl)nc1-c1ccccc1 (stereo unspecified),CC50,[2],30.6 µM (active)
Cc1noc(C)c1-c1ccc2ncnc(Nc3ccc(F)cc3)c2c1,AC50,Cytochrome P450 2D6,39.8 µM (inconclusive)
same,AC50,Cytochrome P450 3A4,15.8 µM (inconclusive)
Nc1ncnc2[nH]c(N3CCN(C(=O)c4ccccc4)CC3)nc12,EC50,[1],> 195 µM (not active)
Cc1cccc(Cn2cnc3c(NS(C)(=O)=O)c(C)c(C)cc32)c1,AC50,Cytochrome P450 2D6,35.5 µM (inconclusive)
same,AC50,Cytochrome P450 2C9,1.26 µM (inconclusive)
CC(CCc1ccccc1)NC(=O)CCNS(=O)(=O)c1ccccc1 (stereo unspecified),EC50,[1],> 195 µM (not active)
CC(=O)Nc1ccc(O)c(-c2nc3ccccc3s2)c1,EC50,[3],21.2 µM (active)
same,EC50,H4,22.5 µM (active)
CCOC(=O)c1c(-c2ccccc2)cn2ccccc12,AC50,Cytochrome P450 2D6,3.16 µM (inconclusive)
same,AC50,Cytochrome P450 3A4,12.6 µM (inconclusive)
COc1cc(/C=C2/C(=N)N3N=C(CC(=O)N4CCOCC4)SC3=NC2=O)ccc1OCc1ccccc1,EC50,[3],10.5 µM (active)
same,EC50,H4,14.5 µM (active)
Cc1ccccc1CSc1nccn1-c1ccccc1,AC50,Cytochrome P450 2D6,17.8 µM (inconclusive)
CC(C)NC(=O)COC(=O)C1CSC2(c3ccc(Br)cc3)CCC(=O)N12 (stereo unspecified),EC50,[1],> 195 µM (not active)
Cc1cc(-c2ccc(C)c(S(=O)(=O)NCCC(C)N3CCCCCC3)c2)on1 (stereo unspecified),EC50,[1],> 195 µM (not active)
